Reference: US9511134B2, “Inducing immune responses to influenza virus using polypeptide and nucleic acid compositions” (priority 2006, dated 2016)
Like-named read-outs stand apart in the source and are kept apart here. Where no end group is shown, it is not given here.

Columns and labels:
Assay in all cases: biochemical
Assay type in all cases: binding
[1] = target: T1, DRB4*0101 (Homo sapiens, UniProt P01903+P13762, G164S)
T1 construct: made in house; host or cells: EBV-transformed homozygous human B cell lines, transfected fibroblasts or single-allele 721.221 transfectants

[2] = target: DRB1*1302 (Homo sapiens, UniProt P01903+P01911, A100E/A169T/K41T/L162R/M171V/P40S/Q125H/Q178H/Q39Y/Q99D/R42S/S66N/T262R/V115G/W38E/Y61H); details: read-out: IC50 nM to purified HLA DRB1*1302
Chain of DRB1*1302 (P01903 26-254 limits assumed, other chains not shown): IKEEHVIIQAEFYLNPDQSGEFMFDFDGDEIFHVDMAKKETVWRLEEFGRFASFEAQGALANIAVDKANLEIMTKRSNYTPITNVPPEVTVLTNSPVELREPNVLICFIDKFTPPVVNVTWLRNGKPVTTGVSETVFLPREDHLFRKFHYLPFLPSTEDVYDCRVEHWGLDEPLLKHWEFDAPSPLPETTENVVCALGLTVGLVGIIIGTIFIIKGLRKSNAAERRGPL

[3] = target: T2, DRB1*1501 (Homo sapiens, UniProt P01903+P01911); details: read-out: IC50 nM to purified HLA DRB1*1501
T2 construct: made in house; host or cells: EBV-transformed homozygous human B cell lines, transfected fibroblasts or single-allele 721.221 transfectants

[4] = target: T3, DRB1*0101 (Homo sapiens, UniProt P01903+P01911, A100R/D57E/F55L/F60I/F76Y/I96L/L162R/M171V/P40L/Q125E/R42F/V115G/Y59C)
T3 construct: made in house; host or cells: EBV-transformed homozygous human B cell lines, transfected fibroblasts or single-allele 721.221 transfectants

[5] = target: T4, DRB1*0301 (Homo sapiens, UniProt P01903+P01911, A100K/A102G/A103R/A169T/F55Y/I96L/K41T/L162R/M171V/P40S/Q125H/Q178H/Q39Y/R42S/S66N/T106N/T262R/W38E/Y61H)
T4 construct: made in house; host or cells: EBV-transformed homozygous human B cell lines, transfected fibroblasts or single-allele 721.221 transfectants
T4 sequence (P01903 26-254, other chains not shown): as the sequence (P01903 26-254 limits assumed, other chains not shown) above

[6] = target: T5, DRB1*0401 (Homo sapiens, UniProt P01903+P01911, A100K/A169T/F76Y/I96L/K127E/L162R/M171V/N62H/P40V/Q125Y/R42H/S133A/S149N/S66Y/V115G/V209L/W38E); details: read-out: IC50 nM to purified HLA DRB1*0401
T5 construct: made in house; host or cells: EBV-transformed homozygous human B cell lines, transfected fibroblasts or single-allele 721.221 transfectants

[7] = target: DRB1*0404 (Homo sapiens, UniProt P01903+P01911, A100R/A169T/F76Y/I96L/K127E/L162R/M171V/N62H/P40V/Q125Y/R42H/S133A/S149N/S66Y/V209L/W38E); details: IC50 nM to purified HLA DRB1*0404
[8] = IC50 nM to purified HLA DRB4*0101
[9] = IC50 nM to purified HLA DRB1*0101
[10] = IC50 nM to purified HLA DRB4*0101, Table 4
[11] = IC50 nM to purified HLA DRB1*0101, Table 4

Compound | IC50 [1, 8] [nM] | IC50 [2] [nM] | IC50 [3] [nM] | IC50 [4, 9] [nM] | IC50 [5] [nM] | IC50 [6] [nM] | IC50 [1, 10] [nM] | IC50 ([3]; Table 4) [nM] | IC50 [4, 11] [nM] | IC50 ([6]; Table 4) [nM] | IC50 ([1]; read-out: IC50 nM to purified HLA DRB4*0101) [nM] | IC50 [7] [nM]
CC[C@H](C)[C@H](NC(=O)[C@@H]1CCCN1C(=O)[C@H](CCCNC(=N)N)NC(=O)[C@@H](NC(=O)[C@H](CCCCN)NC(=O)[C@H](CC(C)C)NC(=O)[C@H](Cc1c[nH]c2ccccc12)NC(=O)[C@H](CCC(=O)O)NC(=O)[C@H](CCSC)NC(=O)[C@H](CC(C)C)NC(=O)[C@H](C)NC(=O)[C@@H](N)CCC(=O)O)[C@@H](C)O)C(=O)N[C@@H](CC(C)C)C(=O)N[C@@H](CO)C(=O)N1CCC[C@H]1C(=O)O [Flu.M1.43] | 5510 | 380 | 18 | 9.5 | – | – | – | – | – | – | – | –
CC(C)C[C@H](NC(=O)CNC(=O)[C@@H](NC(=O)[C@H](C)NC(=O)[C@H](CC(C)C)NC(=O)[C@@H](NC(=O)[C@H](CC(C)C)NC(=O)[C@H](CCCNC(=N)N)NC(=O)[C@H](CC(N)=O)NC(=O)[C@H](CO)NC(=O)[C@H](CCCCN)NC(=O)[C@@H](NC(=O)[C@H](Cc1ccc(O)cc1)NC(=O)[C@H](CCCCN)NC(=O)[C@@H]1CCCN1C(=O)[C@@H](N)CS)C(C)C)C(C)C)[C@@H](C)O)C(=O)O [Flu.HA.318] | 287 | 48 | 230 | 2760 | 2920 | 868 | – | – | – | – | – | –
CC[C@H](C)[C@H](NC(=O)[C@H](CCC(N)=O)NC(=O)[C@H](Cc1ccc(O)cc1)NC(=O)[C@H](CCC(=O)O)NC(=O)[C@H](CC(C)C)NC(=O)[C@@H](N)CC(N)=O)C(=O)NCC(=O)N[C@@H](Cc1ccc(O)cc1)C(=O)N[C@H](C(=O)N[C@@H](CS)C(=O)N[C@@H](CO)C(=O)NCC(=O)N[C@H](C(=O)N[C@@H](Cc1ccccc1)C(=O)NCC(=O)O)C(C)C)[C@@H](C)CC [Flu.NA.289] | 354 | 41 | 13 | 1130 | – | 975 | – | – | – | – | – | –
CC[C@H](C)[C@H](N)C(=O)N[C@@H](Cc1ccc(O)cc1)C(=O)N[C@@H](CCC(N)=O)C(=O)N[C@H](C(=O)N[C@@H](CC(C)C)C(=O)N[C@@H](CO)C(=O)N[C@H](C(=O)N[C@@H](Cc1ccc(O)cc1)C(=O)N[C@@H](CO)C(=O)N[C@H](C(=O)N[C@H](C(=O)N[C@@H](C)C(=O)N[C@@H](CO)C(=O)N[C@@H](CO)C(=O)N[C@@H](CC(C)C)C(=O)N[C@@H](C)C(=O)O)C(C)C)[C@@H](C)O)[C@@H](C)CC)[C@@H](C)CC [Flu.HA.529] | 18 | 13 | 4.7 | 55 | – | 89 | 18 | 4.7 | 55 | 89 | – | –
ISGVKLESIGIYQILSI [Flu.HA.519] | 16 | 408 | 9.2 | – | – | 3110 | – | – | – | – | – | –
CC[C@H](C)[C@H](NC(=O)[C@H](CS)NC(=O)[C@@H](NC(=O)[C@H](CCC(N)=O)NC(=O)[C@H](CC(=O)O)NC(=O)[C@H](CO)NC(=O)[C@H](CCCCN)NC(=O)[C@@H](NC(=O)[C@H](CC(C)C)NC(=O)[C@H](CO)NC(=O)[C@@H](N)C(C)C)C(C)C)[C@@H](C)CC)C(=O)NCC(=O)N[C@@H](Cc1ccc(O)cc1)C(=O)N[C@@H](Cc1c[nH]cn1)C(=O)N[C@@H](C)C(=O)O [Flu.HA.11] | 32 | – | 14500 | – | 511 | – | – | – | – | – | – | –
CC[C@H](C)[C@H](N)C(=O)N[C@@H](CC(C)C)C(=O)N[C@@H](CO)C(=O)N[C@H](C(=O)N[C@@H](Cc1ccc(O)cc1)C(=O)N[C@@H](CO)C(=O)N[C@H](C(=O)N[C@H](C(=O)N[C@@H](C)C(=O)N[C@@H](CO)C(=O)N[C@@H](CO)C(=O)N[C@@H](CC(C)C)C(=O)N[C@@H](C)C(=O)N[C@@H](CC(C)C)C(=O)N[C@@H](C)C(=O)N[C@H](C(=O)O)[C@@H](C)CC)C(C)C)[C@@H](C)O)[C@@H](C)CC [Flu.HA.532] | 824 | 7.6 | 20 | 11 | – | 91 | 824 | 20 | 11 | 91 | – | –
CC[C@H](C)[C@H](NC(=O)[C@H](CO)NC(=O)[C@H](CC(N)=O)NC(=O)[C@@H](N)CCC(N)=O)C(=O)N[C@H](C(=O)N[C@H](C(=O)N[C@@H](CCC(=O)O)C(=O)N[C@@H](CCCNC(=N)N)C(=O)N[C@@H](CCSC)C(=O)N[C@H](C(=O)N[C@@H](CC(C)C)C(=O)N[C@@H](CO)C(=O)N[C@@H](C)C(=O)N[C@@H](Cc1ccccc1)C(=O)N[C@@H](CC(=O)O)C(=O)O)C(C)C)[C@@H](C)CC)[C@@H](C)O [Flu.NP.61] | – | – | 1200 | – | – | 430 | – | 1200 | – | – | 39 | –
CC[C@H](C)[C@H](NC(=O)CNC(=O)[C@H](CO)NC(=O)[C@@H](NC(=O)CNC(=O)[C@H](Cc1ccccc1)NC(=O)[C@H](CO)NC(=O)[C@@H]1CCCN1C(=O)[C@@H](N)CC(C)C)C(C)C)C(=O)N[C@@H](CC(N)=O)C(=O)N[C@@H](CCC(=O)O)C(=O)N[C@@H](CO)C(=O)N[C@@H](C)C(=O)N[C@@H](CC(=O)O)C(=O)N[C@@H](CCSC)C(=O)O [Flu.PB1.512] | 48 | – | – | – | – | 44 | – | – | – | – | – | 39
CSCC[C@H](NC(=O)[C@H](CCCNC(=N)N)NC(=O)[C@H](CCSC)NC(=O)[C@@H](N)C(C)C)C(=O)NCC(=O)N[C@@H](CC(=O)O)C(=O)N[C@@H](CC(C)C)C(=O)N[C@@H](Cc1c[nH]cn1)C(=O)N[C@@H](CO)C(=O)N[C@@H](CC(C)C)C(=O)N[C@@H](CCC(N)=O)C(=O)N[C@@H](CC(N)=O)C(=O)N[C@@H](CCCNC(=N)N)C(=O)N[C@@H](CC(N)=O)C(=O)NCC(=O)O [Flu.NS2.125] | 8820 | 1370 | 372 | 249 | – | 448 | – | – | – | – | – | –
CSCC[C@H](NC(=O)[C@H](CC(C)C)NC(=O)[C@@H](NC(=O)[C@H](CCCNC(=N)N)NC(=O)[C@H](Cc1c[nH]cn1)NC(=O)[C@@H]1CCCN1C(=O)[C@H](CO)NC(=O)[C@H](CCCNC(=N)N)NC(=O)[C@H](CC(=O)O)NC(=O)[C@H](CCCCN)NC(=O)[C@@H](NC(=O)[C@@H](NC(=O)CNC(=O)[C@@H](N)CC(N)=O)[C@@H](C)O)C(C)C)[C@@H](C)O)C(=O)N[C@@H](CO)C(=O)O [Flu.NA.126] | 8880 | 7930 | – | 581 | – | 17900 | – | – | – | – | – | –
CC[C@H](C)[C@H](NC(=O)[C@H](CC(C)C)NC(=O)[C@H](CCCNC(=N)N)NC(=O)CNC(=O)[C@@H](N)CCC(=O)O)C(=O)N[C@@H](CCC(N)=O)C(=O)N[C@@H](CC(N)=O)C(=O)N[C@@H](CO)C(=O)N[C@H](C(=O)N[C@H](C(=O)N[C@H](C(=O)N[C@@H](CCC(=O)O)C(=O)N[C@@H](CCCNC(=N)N)C(=O)N[C@@H](CCSC)C(=O)N[C@H](C(=O)O)C(C)C)[C@@H](C)CC)[C@@H](C)O)[C@@H](C)CC [Flu.NP.56] | 15 | 55 | – | – | – | – | – | – | – | – | – | –
CC[C@H](C)[C@H](NC(=O)[C@H](CC(C)C)NC(=O)[C@H](Cc1c[nH]c2ccccc12)NC(=O)[C@@H](NC(=O)[C@@H](N)C(C)C)C(C)C)C(=O)N[C@@H](CCCCN)C(=O)N[C@@H](CCCCN)C(=O)N[C@@H](CC(N)=O)C(=O)N[C@@H](CO)C(=O)N[C@H](C(=O)N[C@@H](Cc1ccc(O)cc1)C(=O)N1CCC[C@H]1C(=O)N[C@H](C(=O)N[C@H](C(=O)N[C@@H](CCCCN)C(=O)N[C@@H](CCCNC(=N)N)C(=O)O)[C@@H](C)CC)[C@@H](C)O)[C@@H](C)O [Flu.HA.163] | 1660 | 14 | 99 | 464 | – | – | – | – | – | – | – | –
CC[C@H](C)[C@H](NC(=O)[C@@H](N)CC(=O)O)C(=O)N[C@@H](CC(C)C)C(=O)N[C@@H](CCSC)C(=O)N[C@@H](CCCNC(=N)N)C(=O)N[C@@H](CCSC)C(=O)N[C@@H](CO)C(=O)N[C@@H](CCCCN)C(=O)N[C@@H](CCSC)C(=O)N[C@@H](CCC(N)=O)C(=O)N[C@@H](CC(C)C)C(=O)NCC(=O)N[C@@H](CO)C(=O)N[C@@H](CO)C(=O)N[C@@H](CO)C(=O)O [Flu.NS2.87] | 11 | 423 | 748 | 2140 | – | 717 | – | – | – | – | – | –
CC[C@H](C)[C@H](NC(=O)[C@H](CCCNC(=N)N)NC(=O)[C@@H](NC(=O)[C@H](CO)NC(=O)[C@H](CC(N)=O)NC(=O)[C@H](CC(=O)O)NC(=O)[C@H](CCCCN)NC(=O)[C@H](CO)NC(=O)[C@H](Cc1ccc(O)cc1)NC(=O)[C@@H](NC(=O)[C@H](C)NC(=O)[C@@H](N)Cc1c[nH]c2ccccc12)C(C)C)[C@@H](C)CC)C(=O)NCC(=O)N[C@@H](CO)C(=O)N[C@@H](CCCCN)C(=O)O [Flu.NA.77] | 19500 | 36 | 642 | 5400 | – | 1600 | – | – | – | – | – | –
